From paper PMC10093686, “Structural insights into acetylated histone ligand recognition by the BDP1 bromodomain of Plasmodium falciparum” (International journal of biological macromolecules, 2022)
“Also recorded” adds a separate entry of the source.

system: PfBDP1-BRD (303–488); experiment: NMR chemical shift perturbation (2D 15N-1H HSQC) titration with histone peptides; type: binding, Plasmodium falciparum; conditions: 0.3–0.5 mM 15N-labeled PfBDP1-BRD (303–488); 20 mM Tris-HCl pH 6.8, 150 mM NaCl, 10 mM DTT, 10% D2O; molar ratios 1:0, 1:0.5, 1:1, 1:2.5, 1:5; 25°C; result in words
Method: Chemical shift perturbation experiments were performed using 0.3–0.5 mM of uniformly ^15N-labeled PfBDP1-BRD (303–488) in NMR buffer containing 20 mM Tris-HCl pH 6.8, 150 mM NaCl, 10 mM DTT and 10% D2O. […] Two-dimensional ^15N−^1H HSQC (heteronuclear single quantum coherence) experiments for all samples were acquired on Bruker Avance III spectrometer equipped with a cryogenic 1.7 mm probe. The temperature of the samples was regulated at 25°C throughout data collection. All spectra were processed using TopSpin (Bruker) as described previously and analyzed using NMRFAM-SPARKY [48].

Substance | Chemical shift perturbations (CSPs) of PfBDP1-BRD backbone amide peaks upon addition of peptide
MEVPGVIGG(Kac)VGGKVGGKVLGLG [H2A.ZK11ac, histone H2A.Z peptide mono-acetylated at K11] | absence of CSPs
ARTKQTAR(Kac)STGGKAPRKQLATKA [H3K9ac, histone H3 peptide (1–24) mono-acetylated at lysine 9] | did not observe any CSPs

target: PfBDP1-BRD (P. falciparum Bromodomain Protein 1 bromodomain); experiment: ITC binding assay of PfBDP1-BRD with histone peptides; parameters: species or system Plasmodium falciparum; conditions: 5°C, 20 mM sodium phosphate pH 7.5, 150 mM NaCl, 1 mM TCEP, protein (303–488 or 333–456) 100–200 μM in cell, peptide 2.5–5.0 mM in syringe, 1:1 binding model, mean ± SD of three runs, non-binding ligands in duplicate
Method: Isothermal titration calorimetry (ITC) experiments were carried out using a MicroCal PEAQ-ITC and a MicroCal iTC200 (Malvern Panalytical). The purified PfBDP1-BRD proteins (containing residues 303–488 or 333–456) were dialyzed for 48 h at 4°C into ITC buffer containing 20 mM sodium phosphate buffer pH 7.5, 150 mM NaCl, and 1 mM TCEP. The dialyzed PfBDP1-BRD (303–488 or 333–456) proteins were added to the sample cell at concentrations of 100–200 μM, and between 2.5 and 5.0 mM of each histone peptide in the ITC dialysis buffer was placed in the injection syringe. A total of 20 injections were carried out, with the parameters set as follows. […] The remaining 19 injections were completed with an injection volume of 2 μL, a reaction time of 4 s, and a 150 s spacing time between each injection. All ITC runs were carried out at 5°C with a differential power (DP) value of 10, the feedback set to high, at a stirring speed of 750 RPM, and with an initial delay for the reaction set to 60 s.
The ITC data obtained were analyzed using the MicroCal PEAQ-ITC 200 analysis software provided with the instrument (Malvern Panalytical). The heat of dilutions for the buffer and peptide ligands were obtained from titrating buffer into buffer, buffer into PfBDP1-BRD protein (303–488 and 333–456), and histone peptide into buffer. The heats of dilution for the histone peptides were subtracted from the raw isotherms obtained from the histone peptide and PfBDP1-BRD (303–488 and 333–456) protein titrations. The first injection was discarded from the data analysis, and the data was integrated using a 1:1 binding model assuming a single set of identical binding sites. A Marquandt nonlinear least-squares analysis was used to calculate the binding affinities and N values from the normalized heat changes. Binding experiments were repeated in triplicate for each ligand and the mean KD was calculated from the average of the three runs, with the standard deviation coming from the mean.

Substance | PfBDP1-BRD KD
SGKGPAQKSQAA(Kac)KTAGKTLGPR [H2B.ZK13ac, histone H2B.Z peptide mono-acetylated at K13] | No Binding
MEVPGVIGGKVGG(Kac)VGGKVLGLG [H2A.ZK15ac, histone H2A.Z peptide mono-acetylated at K15] | No Binding
SGKGPAQ(Kac)SQAAKKTAGKTLGPR [H2B.ZK8ac, histone H2B.Z peptide mono-acetylated at K8] | No Binding
SGKGPAQKSQAAKKTAG(Kac)TLGPR [H2B.ZK18ac, histone H2B.Z peptide mono-acetylated at K18] | No Binding
SGKGPAQKSQAAKKTAGKTLGPR [H2B.Z unmodified, unmodified P. falciparum histone variant H2B.Z peptide] | No Binding
MEVPGVIGG(Kac)VGGKVGGKVLGLG [H2A.ZK11ac, histone H2A.Z peptide mono-acetylated at K11] | No Binding
ARTKQTAR(Kac)STGGKAPRKQLATKA [H3K9ac, histone H3 peptide (1–24) mono-acetylated at lysine 9] | did not observe any interaction; also recorded: No Binding
SGKGPAQKSQAAK(Kac)TAGKTLGPR [H2B.ZK14ac, histone H2B.Z peptide mono-acetylated at K14] | No Binding
MEVPGVIGGKVGGKVGG(Kac)VLGLG [H2A.ZK19ac, histone H2A.Z peptide mono-acetylated at K19] | No Binding
MEVPGVIGGKVGGKVGGKVLGLG [H2A.Z unmodified, unmodified P. falciparum histone variant H2A.Z peptide] | No Binding
SGRGKGG(Kac)GLGKGGAKRHRKVLRD [H4K8ac, histone H4 peptide (1–24) mono-acetylated at K8] | No Binding
SG(Kac)GPAQKSQAAKKTAGKTLGPR [H2B.ZK3ac, histone H2B.Z peptide mono-acetylated at K3] | No Binding
